Results on 1 molecule are retold here after paper PMC11614538, “The proline-rich antimicrobial peptide B7-005: low bacterial resistance, safe for human cells and effective in zebrafish embryo bacteraemia model” (Open Biology, 2024).

pIC50: −log10 of the molar value. Residues, ends and D or L forms follow the SMILES beside them. Some results are limits rather than exact numbers.

This assay concerns HaCaT cells. Briefly: Cell viability MTT, HaCaT. As to conditions: 24 h, DMEM, n ≥ 9. It counts as cell-based, human. How it is done:
Chronic lymphocytic leukaemia-derived MEC-1 cells were cultured in suspension using complete RPMI (EuroClone), supplemented with 100 U ml^−1 penicillin (Sigma), 100 μg ml^−1 streptomycin (Sigma), 2 mM L-glutamine and 10% (v/v) foetal bovine serum (FBS, EuroClone). A549 human lung carcinoma epithelial cells and immortalized human keratinocytes (HaCaT) were grown in adhesion in complete high glucose Dulbecco’s MEM (DMEM, EuroClone) supplemented with 100 U ml^−1 penicillin (Sigma), […] streptomycin (Sigma), 2 mM L-glutamine and 10% (v/v) of FBS. […] All cell lines were counted in a Bürker chamber and diluted to the desired working concentrations.
Cell viability was evaluated by tetrazolium salt (MTT, or MTS for HUVECs only) tests. […] The next day, absorbance was measured at 570 nm using a Nanoquant Infinite-M200Pro plate reader (Tecan, Switzerland).
HUVECs, 7500 cells per well, were seeded in HESFM with 10% FBS in a 96-well flat-bottomed microtitre plate (EuroClone SpA, Italy). […] The plate was then incubated for 2 h at 37°C in a humidified 5% CO2 atmosphere, and the absorbance was measured at 490 nm, using a spectrophotometer (PowerWaveX, Bio-Tek Instruments). The cytotoxicity was calculated by comparing the absorbance of peptide-treated samples with that of the untreated control and expressed in percentage of vitality. […]

With `CC[C@H](C)[C@H](NC(=O)[C@H](CCCNC(=N)N)NC(=O)[C@@H](N)Cc1c[nH]c2ccccc12)C(=O)N[C@@H](CCCNC(=N)N)C(=O)N[C@@H](CCCNC(=N)N)C(=O)N[C@@H](CCCNC(=N)N)C(=O)N[C@@H](Cc1c[nH]c2ccccc12)C(=O)N1CCC[C@H]1C(=O)N[C@@H](CCCNC(=N)N)C(=O)N[C@@H](CC(C)C)C(=O)N1CCC[C@H]1C(=O)N[C@@H](CCCNC(=N)N)C(=O)N1CCC[C@H]1C(=O)N[C@@H](CCCNC(=N)N)C(=O)N[C@@H](Cc1c[nH]c2ccccc12)C(=O)N[C@@H](CCCNC(=N)N)C(=O)O` [B7-005] (H-WRIRRRWPRLPRPRWR-OH), the pIC50 is > 3.89.

What is called pIC50 is the negative decadic logarithm of the IC50, by convention in mol/L. Low values mean a large IC50, high ones a small IC50.
